Values of other authors, collected in paper PMC4369175 (Journal of photochemistry and photobiology. B, Biology, 2015).
Read-outs that look alike come from different tables or passages of the source.

Columns and labels:
[1] = standard value

SMILES | Φf of fluorescence standard ([1]; in ethanol) | ΦΔ singlet oxygen quantum yield of the reference standard | Φf of fluorescence standard ([1]; in methanol)
CC/N=c1\cc2oc3cc(NCC)c(C)cc3c(-c3ccccc3C(=O)OCC)c-2cc1C [Rhodamine 6G] | 0.95 | – | –
CN(C)c1ccc2nc3ccc(=[N+](C)C)cc-3sc2c1 [methylene blue] | – | 0.52 | 0.03
